Consider 28 substances from PMC12102759 (Protein Science : A Publication of the Protein Society, 2025).

Read-outs that look alike come from different tables or passages of the source.

In the test the test system is PABPC1 PABC. The class given is binding, human. The note with it: DMS-BM library, bait PABPC1 PABC, row aa = residue at this position; for DMS-derived PSSM value, position S13 / DMS-derived PSSM value, position S2 / DMS-derived PSSM value, position S15: S = wild type; for DMS-derived PSSM value, position A8: A = wild type; for DMS-derived PSSM value, position T3: T = wild type.

The mark [1] stands for this setting: prey ATXN2, TLNPNAKEFNPRSF(averaged) over the two overlapping peptides, E = wild type.
Where [2] appears, read: prey ATXN2, peptide KSTLNPNAKEFNPRSF, E = wild type.
Where [3] appears, read: prey ATXN2, peptide KSTLNPNAKEFNPRSF, N = wild type.
Setting [4] is: prey ATXN2, peptide TLNPNAKEFNPRSFSQ
[5] abbreviates: prey ATXN2, peptide KSTLNPNAKEFNPRSF, P = wild type.
The mark [6] stands for this setting: prey ATXN2, TLNPNAKEFNPRSF(averaged) over the two overlapping peptides, L = wild type.
The mark [7] stands for this setting: prey ATXN2, peptide KSTLNPNAKEFNPRSF
Setting [8] is: prey ATXN2, peptide TLNPNAKEFNPRSFSQ, N = wild type.
[9] abbreviates: prey ATXN2, peptide KSTLNPNAKEFNPRSF, F = wild type.

As to TLNPNAKEFNPRSFSQ E8I (TLNPNAKIFNPRSFSQ), the “DMS-derived PSSM value, position E8” value (prey ATXN2, peptide TLNPNAKEFNPRSFSQ, E = wild type) turned out to be 0.01296. Regarding “TLNPNAKEFNPRSF(averaged) E8T (TLNPNAKTFNPRSF)”, the “DMS-derived PSSM value (averaged), position E8” value under setting [1] is on record as 0.1317.

As for “KSTLNPNAKEFNPRSF E10Y (KSTLNPNAKYFNPRSF)”, the “DMS-derived PSSM value, position E10” value under setting [2] is 0. Turning to KSTLNPNAKEFNPRSF N5I (KSTLIPNAKEFNPRSF), the “DMS-derived PSSM value, position N5” value under setting [3] stood at 0. For “TLNPNAKEFNPRSFSQ S13Q (TLNPNAKEFNPRQFSQ)”, the “DMS-derived PSSM value, position S13” value under setting [4] stood at 0.0185. As for KSTLNPNAKEFNPRSF P6Y (KSTLNYNAKEFNPRSF), the “DMS-derived PSSM value, position P6” value under setting [5] came to 0. “TLNPNAKEFNPRSF(averaged) P11S (TLNPNAKEFNSRSF)”: under “prey ATXN2, TLNPNAKEFNPRSF(averaged) over the two overlapping peptides, P = wild type”, the “DMS-derived PSSM value (averaged), position P11” value came out at 0.02695. Regarding “TLNPNAKEFNPRSF(averaged) L2D (TDNPNAKEFNPRSF)”, under setting [6], the “DMS-derived PSSM value (averaged), position L2” value was found to be 0.

In the case of “TLNPNAKEFNPRSFSQ S13Y (TLNPNAKEFNPRYFSQ)”, under setting [4], the “DMS-derived PSSM value, position S13” value was 0.04643. For the substance KSTLNPNAKEFNPRSF A8V (KSTLNPNVKEFNPRSF), the “DMS-derived PSSM value, position A8” value under setting [7] was 0.4196. As to “TLNPNAKEFNPRSFSQ N10P (TLNPNAKEFPPRSFSQ)”, the “DMS-derived PSSM value, position N10” value under setting [8] turned out to be 0.06147.

As to “TLNPNAKEFNPRSF(averaged) K7N (TLNPNANEFNPRSF)”, where the note is “prey ATXN2, TLNPNAKEFNPRSF(averaged) over the two overlapping peptides, K = wild type”, the “DMS-derived PSSM value (averaged), position K7” value is listed as 0.09977.

With “TLNPNAKEFNPRSF(averaged) L2Y (TYNPNAKEFNPRSF)”, the “DMS-derived PSSM value (averaged), position L2” value under setting [6] amounted to 0.0552. As for KSTLNPNAKEFNPRSF T3Q (KSQLNPNAKEFNPRSF), the “DMS-derived PSSM value, position T3” value under setting [7] is given as 0. For the substance “KSTLNPNAKEFNPRSF P13W (KSTLNPNAKEFNWRSF)”, the “DMS-derived PSSM value, position P13” value under setting [5] is 0.01574. Turning to KSTLNPNAKEFNPRSF A8H (KSTLNPNHKEFNPRSF), the “DMS-derived PSSM value, position A8” value under setting [7] is reported as 0. For the substance TLNPNAKEFNPRSFSQ F9P (TLNPNAKEPNPRSFSQ), for the setting “prey ATXN2, peptide TLNPNAKEFNPRSFSQ, F = wild type”, the “DMS-derived PSSM value, position F9” value was 0.

Consider TLNPNAKEFNPRSFSQ N5K (TLNPKAKEFNPRSFSQ), for which, under setting [8], the “DMS-derived PSSM value, position N5” value is 0.01257.

Regarding “KSTLNPNAKEFNPRSF P13T (KSTLNPNAKEFNTRSF)”, the “DMS-derived PSSM value, position P13” value under setting [5] is listed as 0.0002514.

For “KSTLNPNAKEFNPRSF P13L (KSTLNPNAKEFNLRSF)”, the “DMS-derived PSSM value, position P13” value under setting [5] stood at 0.006424. Regarding KSTLNPNAKEFNPRSF A8Y (KSTLNPNYKEFNPRSF), the “DMS-derived PSSM value, position A8” value under setting [7] is listed as 0.

KSTLNPNAKEFNPRSF: under setting [7], the “DMS-derived PSSM value, position A8” value was 0.5804; the “DMS-derived PSSM value, position S2” value stood at 0.03631; the “DMS-derived PSSM value, position S15” value turned out to be 0.05273; the “DMS-derived PSSM value, position T3” value stood at 0.04565. Further, the “DMS-derived PSSM value, position E10” value under setting [2] turned out to be 0.1617. Under setting [9], the “DMS-derived PSSM value, position F11” value turned out to be 0.393 and the “DMS-derived PSSM value, position F16” value is recorded as 0.06015. The “DMS-derived PSSM value, position K9” value (prey ATXN2, peptide KSTLNPNAKEFNPRSF, K = wild type) came to 0.008078. Further, the “DMS-derived PSSM value, position L4” value (prey ATXN2, peptide KSTLNPNAKEFNPRSF, L = wild type) was 0.6837. For the same substance, under setting [3], the “DMS-derived PSSM value, position N5” value is on record as 0.9124; the “DMS-derived PSSM value, position N7” value is 0.02963; the “DMS-derived PSSM value, position N12” value amounted to 0.02408. Under setting [5], the “DMS-derived PSSM value, position P6” value is recorded as 0.1132 and the “DMS-derived PSSM value, position P13” value was determined as 0.007578. Besides, the “DMS-derived PSSM value, position R14” value (prey ATXN2, peptide KSTLNPNAKEFNPRSF, R = wild type) is on record as 0.01898. Regarding “KSTLNPNAKEFNPRSF S15H (KSTLNPNAKEFNPRHF)”, under setting [7], the “DMS-derived PSSM value, position S15” value is on record as 0.1165. Regarding “TLNPNAKEFNPRSF(averaged) E8W (TLNPNAKWFNPRSF)”, the “DMS-derived PSSM value (averaged), position E8” value under setting [1] was 0. “KSTLNPNAKEFNPRSF E10K (KSTLNPNAKKFNPRSF)”: the “DMS-derived PSSM value, position E10” value under setting [2] is on record as 0.06317. Consider KSTLNPNAKEFNPRSF S2V (KVTLNPNAKEFNPRSF), for which, under setting [7], the “DMS-derived PSSM value, position S2” value is recorded as 0.1043. On to KSTLNPNAKEFNPRSF T3L (KSLLNPNAKEFNPRSF), for which, under setting [7], the “DMS-derived PSSM value, position T3” value turned out to be 0.01491.

Take “TLNPNAKEFNPRSF(averaged) N10D (TLNPNAKEFDPRSF)”: the “DMS-derived PSSM value (averaged), position N10” value (prey ATXN2, TLNPNAKEFNPRSF(averaged) over the two overlapping peptides, N = wild type) stood at 0.04905.
